Assay [1] deals with Protein arginine N-methyltransferase 6 (Homo sapiens, UniProt Q96LA8). As to the kind of experiment: Inhibition of PRMT6 (unknown origin) preincubated for 10 mins followed by substrate addition and measured after 3 hrs by MTase-Glo detection reagent based luminescence analysis.
In assay [2] the target is Protein arginine N-methyltransferase 8 (Homo sapiens, UniProt Q9NR22). As to the kind of experiment: Inhibition of N-terminal His-tagged human PRMT8 (61 to 394 residues) extracted from Escherichia coli preincubated for 10 mins followed by substrate addition and measured after 3 hrs by MTase-Glo detection reagent based luminescence analysis.
Assay [3] addresses T1, Protein arginine N-methyltransferase 9 (Homo sapiens, UniProt Q6P2P2).
T1 sequence (Q6P2P2 whole entry): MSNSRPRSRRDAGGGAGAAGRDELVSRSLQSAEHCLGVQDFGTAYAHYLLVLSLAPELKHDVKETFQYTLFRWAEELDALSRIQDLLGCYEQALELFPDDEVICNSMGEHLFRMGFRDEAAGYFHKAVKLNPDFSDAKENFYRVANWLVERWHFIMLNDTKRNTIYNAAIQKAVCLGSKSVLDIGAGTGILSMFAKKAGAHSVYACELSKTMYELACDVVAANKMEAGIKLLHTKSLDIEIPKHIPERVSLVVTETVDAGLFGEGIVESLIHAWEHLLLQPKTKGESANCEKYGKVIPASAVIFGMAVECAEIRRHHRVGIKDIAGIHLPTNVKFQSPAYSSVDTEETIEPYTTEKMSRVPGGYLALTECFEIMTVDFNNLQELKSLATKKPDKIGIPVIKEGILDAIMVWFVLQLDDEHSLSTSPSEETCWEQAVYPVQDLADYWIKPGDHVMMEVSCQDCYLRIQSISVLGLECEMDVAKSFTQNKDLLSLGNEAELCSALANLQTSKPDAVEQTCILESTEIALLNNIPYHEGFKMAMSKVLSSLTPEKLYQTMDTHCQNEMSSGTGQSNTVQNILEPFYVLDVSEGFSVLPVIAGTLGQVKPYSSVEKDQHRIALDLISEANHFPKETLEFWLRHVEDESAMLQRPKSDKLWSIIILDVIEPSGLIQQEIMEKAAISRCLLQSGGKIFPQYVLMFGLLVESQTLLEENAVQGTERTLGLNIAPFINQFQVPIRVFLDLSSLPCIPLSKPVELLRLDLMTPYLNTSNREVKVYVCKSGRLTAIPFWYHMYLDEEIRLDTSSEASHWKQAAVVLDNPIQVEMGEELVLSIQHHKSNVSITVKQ
Briefly: Inhibition of PRMT9 (unknown origin) incubated overnight by Alphascreen microplate reader.

Assay [4] concerns the target Protein arginine N-methyltransferase 1 (Homo sapiens, UniProt Q99873). As to the kind of experiment: Inhibition of N-terminal FLAG-tagged recombinant full length human PRMT1 extracted from baculovirus expression system preincubated for 10 mins followed by substrate addition and measured after 3 hrs by MTase-Glo detection reagent based luminescence analysis.
The target in assay [5] is T2, Histone-arginine methyltransferase CARM1 (Homo sapiens, UniProt Q86X55).
T2 sequence (Q86X55 whole entry): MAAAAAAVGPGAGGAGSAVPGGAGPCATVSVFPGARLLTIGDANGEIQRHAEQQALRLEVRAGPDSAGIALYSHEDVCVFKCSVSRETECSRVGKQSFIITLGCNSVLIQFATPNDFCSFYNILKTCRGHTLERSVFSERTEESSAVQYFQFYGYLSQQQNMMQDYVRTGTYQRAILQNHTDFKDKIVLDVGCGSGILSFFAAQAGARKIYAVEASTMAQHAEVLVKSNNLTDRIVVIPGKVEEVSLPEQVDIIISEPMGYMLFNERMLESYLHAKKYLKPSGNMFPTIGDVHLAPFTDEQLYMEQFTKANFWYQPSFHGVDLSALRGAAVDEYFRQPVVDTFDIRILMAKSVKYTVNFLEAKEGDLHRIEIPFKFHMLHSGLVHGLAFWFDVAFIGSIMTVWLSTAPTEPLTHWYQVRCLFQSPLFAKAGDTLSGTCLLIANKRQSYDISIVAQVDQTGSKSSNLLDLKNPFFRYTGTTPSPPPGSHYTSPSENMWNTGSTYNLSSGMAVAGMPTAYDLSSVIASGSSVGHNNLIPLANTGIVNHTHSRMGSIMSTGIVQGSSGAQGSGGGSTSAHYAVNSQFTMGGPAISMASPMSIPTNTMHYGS
Briefly: Inhibition of N-terminal FLAG-tagged recombinant full length human PRMT4 extracted from baculovirus expression system preincubated for 10 mins followed by substrate addition and measured after 3 hrs by MTase-Glo detection reagent based luminescence analysis.

The target of assay [6] is Protein arginine N-methyltransferase 3 (Homo sapiens, UniProt O60678). As to the kind of experiment: Inhibition of N-terminal His-tagged recombinant human PRMT3 (2 to 531 residues) extracted from Escherichia coli preincubated for 10 mins followed by substrate addition and measured after 3 hrs by MTase-Glo detection reagent based luminescence analysis.
Assay [7] deals with T3, Protein arginine N-methyltransferase 7 (Homo sapiens, UniProt Q9NVM4).
T3 sequence (Q9NVM4 whole entry): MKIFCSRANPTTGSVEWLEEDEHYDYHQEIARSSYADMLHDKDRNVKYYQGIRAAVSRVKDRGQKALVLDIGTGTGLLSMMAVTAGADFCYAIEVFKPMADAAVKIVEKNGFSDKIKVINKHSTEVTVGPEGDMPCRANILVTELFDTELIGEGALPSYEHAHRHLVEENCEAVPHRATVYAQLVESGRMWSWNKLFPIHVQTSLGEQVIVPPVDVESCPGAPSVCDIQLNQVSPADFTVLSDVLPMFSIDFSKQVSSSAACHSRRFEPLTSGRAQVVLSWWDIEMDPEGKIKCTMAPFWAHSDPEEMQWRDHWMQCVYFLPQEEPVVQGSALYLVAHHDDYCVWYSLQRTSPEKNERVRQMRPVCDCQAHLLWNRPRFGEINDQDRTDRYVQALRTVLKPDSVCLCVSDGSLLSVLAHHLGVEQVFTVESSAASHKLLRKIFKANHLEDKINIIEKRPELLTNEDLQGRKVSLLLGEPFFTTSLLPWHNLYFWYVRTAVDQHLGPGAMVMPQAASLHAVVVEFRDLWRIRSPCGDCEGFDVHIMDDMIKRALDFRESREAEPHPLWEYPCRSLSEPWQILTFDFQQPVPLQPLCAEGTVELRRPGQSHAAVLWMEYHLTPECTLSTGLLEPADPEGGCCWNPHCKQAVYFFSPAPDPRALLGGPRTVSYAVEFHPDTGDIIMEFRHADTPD
Briefly: Inhibition of N-terminal FLAG-tagged recombinant human PRMT7 extracted from baculovirus infected Sf9 cells using Histone H4 (1 to 21) peptide as substrate preincubated for 15 mins followed by [3H]-SAM and substrate addition and measured after 180 mins by microplate counter analysis.

A further assay concerns PC-3. Briefly: Antiproliferative activity against human PC-3 cells assessed as reduction in cell viability incubated for 48 hrs by CCK8 assay. The format is functional, cell-based. The conditions noted are these: PC-3, 48 h.
The subject of a further assay is CWR22R. As to the kind of experiment: Antiproliferative activity against human 22Rv1 cells assessed as reduction in cell viability incubated for 48 hrs by CCK8 assay. In kind it is functional, cell-based. The conditions noted are these: 22Rv1, 48 h.
In a further assay the test system is VCaP. Briefly: Antiproliferative activity against human VCaP cells assessed as reduction in cell viability incubated for 48 hrs by CCK8 assay. The format is functional, cell-based.
For assay [8], the system named is DU-145. Briefly: Antitumor activity against human DU-145 cells xenografted in male BALB/c nude mouse assessed as tumor growth inhibition at 20 mg/kg, ip relative to control. The conditions noted are these: DU-145, read-out: TGI.
The target in assay [9] is T3, Protein arginine N-methyltransferase 7. As to the kind of experiment: Binding affinity to N-terminal GST-tagged recombinant full length human PRMT7 extracted from baculovirus infected Sf9 cells assessed as dissociation constant by SPR analysis.
In assay [10] the test system is DU-145. Briefly: Antiproliferative activity against human DU-145 cells assessed as reduction in cell viability incubated for 48 hrs by CCK8 assay. In kind it is functional, cell-based. The conditions noted are these: DU-145, 48 h.

pIC50, pKd: −log10 of the molar value.

Chain of Protein arginine N-methyltransferase 8 (Q9NR22 whole entry, the tested form may be a part): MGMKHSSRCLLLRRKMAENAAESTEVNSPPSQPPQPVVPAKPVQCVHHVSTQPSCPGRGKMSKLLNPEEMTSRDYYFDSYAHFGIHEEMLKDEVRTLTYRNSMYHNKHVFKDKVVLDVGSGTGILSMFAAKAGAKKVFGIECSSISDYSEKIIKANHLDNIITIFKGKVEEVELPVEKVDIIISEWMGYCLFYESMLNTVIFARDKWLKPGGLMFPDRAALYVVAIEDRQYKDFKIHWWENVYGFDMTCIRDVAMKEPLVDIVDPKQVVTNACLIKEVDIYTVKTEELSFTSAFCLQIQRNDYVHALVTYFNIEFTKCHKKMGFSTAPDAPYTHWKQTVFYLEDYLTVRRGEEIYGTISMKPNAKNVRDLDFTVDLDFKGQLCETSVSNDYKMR
Chain of Protein arginine N-methyltransferase 1 (Q99873 whole entry): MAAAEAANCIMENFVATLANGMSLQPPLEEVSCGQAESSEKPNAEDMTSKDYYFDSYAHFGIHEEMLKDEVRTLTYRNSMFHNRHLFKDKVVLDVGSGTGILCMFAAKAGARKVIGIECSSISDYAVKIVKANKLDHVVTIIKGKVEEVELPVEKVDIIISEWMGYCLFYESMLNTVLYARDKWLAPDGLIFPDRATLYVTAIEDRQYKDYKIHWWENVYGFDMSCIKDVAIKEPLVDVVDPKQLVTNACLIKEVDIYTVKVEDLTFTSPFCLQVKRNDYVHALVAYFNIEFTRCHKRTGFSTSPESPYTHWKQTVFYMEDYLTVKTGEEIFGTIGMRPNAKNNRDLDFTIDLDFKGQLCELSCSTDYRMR
Chain of Protein arginine N-methyltransferase 3 (O60678 whole entry, the tested form may be a part): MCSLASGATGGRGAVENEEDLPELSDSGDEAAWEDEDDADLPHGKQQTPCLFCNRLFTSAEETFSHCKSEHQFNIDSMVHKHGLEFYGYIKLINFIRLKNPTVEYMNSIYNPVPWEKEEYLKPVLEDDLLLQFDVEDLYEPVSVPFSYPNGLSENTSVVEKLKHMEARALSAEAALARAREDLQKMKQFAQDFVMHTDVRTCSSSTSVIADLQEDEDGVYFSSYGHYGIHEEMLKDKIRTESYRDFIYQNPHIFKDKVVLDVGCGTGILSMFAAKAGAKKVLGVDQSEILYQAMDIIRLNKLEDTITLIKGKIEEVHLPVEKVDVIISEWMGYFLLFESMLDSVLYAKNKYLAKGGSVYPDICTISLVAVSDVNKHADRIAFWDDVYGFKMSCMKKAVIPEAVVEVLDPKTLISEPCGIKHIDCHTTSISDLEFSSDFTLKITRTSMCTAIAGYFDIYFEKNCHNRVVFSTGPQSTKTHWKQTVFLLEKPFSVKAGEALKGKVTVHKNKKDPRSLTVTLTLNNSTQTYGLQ
Chain of Protein arginine N-methyltransferase 6 (Q96LA8 whole entry, the tested form may be a part): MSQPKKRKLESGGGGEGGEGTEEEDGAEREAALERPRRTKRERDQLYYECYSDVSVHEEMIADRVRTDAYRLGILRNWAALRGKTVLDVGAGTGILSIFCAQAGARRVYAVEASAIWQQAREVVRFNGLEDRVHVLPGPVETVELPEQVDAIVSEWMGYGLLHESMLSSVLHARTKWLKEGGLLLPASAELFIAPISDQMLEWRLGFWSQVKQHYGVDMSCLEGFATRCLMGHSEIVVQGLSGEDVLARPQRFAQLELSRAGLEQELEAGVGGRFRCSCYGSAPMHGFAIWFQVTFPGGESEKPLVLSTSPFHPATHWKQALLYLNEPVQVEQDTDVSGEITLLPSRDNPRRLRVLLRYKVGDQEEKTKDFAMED

Take `COc1cc(-c2nc(Nc3ccc4nc(C)cc(N)c4c3)c3sccc3n2)cc(OC)c1OC`: the pIC50 in assay [1], in assay [2], in [3], in assay [4], in assay [5] and in [6] was under 4.00 in each case.

For `COc1cc(-c2ncc(F)c(Nc3ccc4nc(C)cc(N)c4c3)n2)cc(OC)c1OC`, the pIC50 in [7] was 5.00; in the assay on PC-3, 5.95; in the assay on CWR22R, 5.88; in the assay on VCaP, 5.78; in the assay on DU-145 [10], 5.83. For the same compound, the inhibition in vivo at 20 mg/kg in the assay on DU-145 [8] came out at 40.3%. The negative-log Kd (pKd) in [9] was 5.15.

In the case of `COc1cc(-c2ccc3ncc(Nc4ccc(N(C)C)cc4)nc3c2)cc(OC)c1OC`, the pIC50 in assay [7] was 4.58.

Source of the values: ChEMBL document CHEMBL6109154, “Development of Novel PRMT7 Inhibitors for the Treatment of Prostate Cancer” (J Med Chem, 2025).
